Measurements reported in ChEMBL document CHEMBL1201862, “PubChem BioAssay data set” (2004).
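Grown in 96-well plates, cells were treated for 48 hours with each compound at five concentrations. Insufficient inhibition: endpoint recorded as highest concentration tested. The concentration for 50% growth inhibition is given as GI50.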 The source made the active and inactive calls. Rule as the data show it: active = GI50 up to about 1.1 µM and inactive = higher.

What was measured:
Experiment in all cases: inhibition of tumour cell growth, NCI panel, 48 h
T47D = system: T47D
CCRF-CEM = system: CCRF-CEM
EKVX = system: EKVX
K562 = system: K562
HOP-92 = system: HOP-92
CAKI-1 = system: CAKI-1
LOX IMVI = system: LOX IMVI
MOLT-4 = system: MOLT-4
A498 = system: A498
MDA-MB-435 = system: MDA-MB-435
SF-295 = system: SF-295
SF-539 = system: SF-539
SR = system: SR
NCI-H460 = system: NCI-H460
MDA-N = system: MDA-N
OVCAR-8 = system: OVCAR-8
SF-268 = system: SF-268
A549 = system: A549
NCI-H23 = system: NCI-H23
MDA-MB-231 = system: MDA-MB-231
NCI/ADR-RES = system: NCI/ADR-RES
OVCAR-3 = system: OVCAR-3
TK-10 = system: TK-10
HOP-62 = system: HOP-62
NCI-H226 = system: NCI-H226
ACHN = system: ACHN
786-0 = system: 786-0
MCF7 = system: MCF7
HCT-116 = system: HCT-116
OVCAR-4 = system: OVCAR-4
HCC 2998 = system: HCC 2998
SK-MEL-5 = system: SK-MEL-5
UO-31 = system: UO-31
M14 = system: M14
BT-549 = system: BT-549
UACC-62 = system: UACC-62
UACC-257 = system: UACC-257
RPMI-8226 = system: RPMI-8226
DU-145 = system: DU-145
COLO 205 = system: COLO 205
OVCAR-5 = system: OVCAR-5
SNB-19 = system: SNB-19
Hs-578T = system: Hs-578T
SW-620 = system: SW-620
RXF 393 = system: RXF 393
NCI-H522 = system: NCI-H522
HT-29 = system: HT-29
KM12 = system: KM12
PC-3 = system: PC-3
HCT-15 = system: HCT-15
SNB-75 = system: SNB-75
U-251 = system: U-251
SK-OV-3 = system: SK-OV-3
SN12C = system: SN12C
SK-MEL-28 = system: SK-MEL-28
Malme-3M = system: Malme-3M
SK-MEL-2 = system: SK-MEL-2
HL-60 = system: HL-60
IGROV-1 = system: IGROV-1

## CC1OC(OC2C(O)COC(OC3C(C)OC(OC4C(OC(=O)[C@]56CCC(C)(C)C[C@@H]5C5=CCC7[C@@]8(C)C[C@H](O)[C@H](OC9OC(CO)C(O)C(O)C9O)[C@@](C)(CO)[C@@H]8CC[C@@]7(C)[C@]5(C)CC6)OCC(O)C4O)C(O)C3O)C2O)C(O)C(O)C1O (some centres undefined)
T47D
  GI50: 22 µM (inactive)
CCRF-CEM
  GI50: 20.6 µM (inactive)
EKVX
  GI50: 16.5 µM (inactive)
K562
  GI50: 47.9 µM (inactive)
HOP-92
  GI50: 23.7 µM (inactive)
CAKI-1
  GI50: 12.5 µM (inactive)
LOX IMVI
  GI50: 21.3 µM (inactive)
MOLT-4
  GI50: 19 µM (inactive)
A498
  GI50: 19.5 µM (inactive)
MDA-MB-435
  GI50: 23.4 µM (inactive)
SF-295
  GI50: 23.9 µM (inactive)
SF-539
  GI50: 22.2 µM (inactive)
SR
  GI50: 21 µM (inactive)
NCI-H460
  GI50: 20.5 µM (inactive)
MDA-N
  GI50: 20.5 µM (inactive)
OVCAR-8
  GI50: 18.8 µM (inactive)
SF-268
  GI50: 27.7 µM (inactive)
A549
  GI50: 20.8 µM (inactive)
NCI-H23
  GI50: 28.2 µM (inactive)
MDA-MB-231
  GI50: 19.8 µM (inactive)
NCI/ADR-RES
  GI50: 21.6 µM (inactive)
OVCAR-3
  GI50: 18.1 µM (inactive)
TK-10
  GI50: 17.1 µM (inactive)
HOP-62
  GI50: 18.3 µM (inactive)
NCI-H226
  GI50: 25.1 µM (inactive)
ACHN
  GI50: 21.2 µM (inactive)
786-0
  GI50: 18.1 µM (inactive)
MCF7
  GI50: 30.9 µM (inactive)
HCT-116
  GI50: 25.8 µM (inactive)
OVCAR-4
  GI50: 20.8 µM (inactive)
HCC 2998
  GI50: 18.5 µM (inactive)
SK-MEL-5
  GI50: 20.4 µM (inactive)
UO-31
  GI50: 12.9 µM (inactive)
M14
  GI50: 22.8 µM (inactive)
BT-549
  GI50: 24.1 µM (inactive)
UACC-62
  GI50: 20.8 µM (inactive)
UACC-257
  GI50: 17.5 µM (inactive)
RPMI-8226
  GI50: 33.2 µM (inactive)
DU-145
  GI50: 19.1 µM (inactive)
COLO 205
  GI50: 14.9 µM (inactive)
OVCAR-5
  GI50: 17.1 µM (inactive)
SNB-19
  GI50: 21.8 µM (inactive)
Hs-578T
  GI50: 32 µM (inactive)
SW-620
  GI50: 20.1 µM (inactive)
RXF 393
  GI50: 15.6 µM (inactive)
NCI-H522
  GI50: 46.6 µM (inactive)
HT-29
  GI50: 21 µM (inactive)
KM12
  GI50: 35.5 µM (inactive)
PC-3
  GI50: 18.2 µM (inactive)
HCT-15
  GI50: 20.9 µM
SNB-75
  GI50: 20 µM (inactive)
U-251
  GI50: 23.9 µM (inactive)
SK-OV-3
  GI50: 19.8 µM (inactive)
SN12C
  GI50: 21.2 µM (inactive)
SK-MEL-28
  GI50: 15 µM (inactive)
Malme-3M
  GI50: 33.4 µM (inactive)

## CC(=C/C=C/C=C(C)\C=C\C=C(\C)C(=O)O)/C=C/C=C(/C)C(=O)O
T47D
  GI50: > 100 µM (inactive)
CCRF-CEM
  GI50: > 100 µM (inactive)
K562
  GI50: > 100 µM (inactive)
HOP-92
  GI50: > 100 µM (inactive)
CAKI-1
  GI50: > 100 µM (inactive)
LOX IMVI
  GI50: > 100 µM (inactive)
MOLT-4
  GI50: > 100 µM (inactive)
SK-MEL-2
  GI50: > 100 µM (inactive)
A498
  GI50: > 100 µM (inactive)
MDA-MB-435
  GI50: > 100 µM (inactive)
SF-295
  GI50: > 100 µM (inactive)
SF-539
  GI50: > 100 µM (inactive)
SR
  GI50: > 100 µM (inactive)
NCI-H460
  GI50: > 100 µM (inactive)
MDA-N
  GI50: > 100 µM (inactive)
OVCAR-8
  GI50: > 100 µM (inactive)
SF-268
  GI50: > 100 µM (inactive)
A549
  GI50: > 100 µM (inactive)
NCI-H23
  GI50: > 100 µM (inactive)
MDA-MB-231
  GI50: > 100 µM (inactive)
NCI/ADR-RES
  GI50: > 100 µM (inactive)
OVCAR-3
  GI50: > 100 µM (inactive)
TK-10
  GI50: > 100 µM (inactive)
HOP-62
  GI50: > 100 µM (inactive)
NCI-H226
  GI50: > 100 µM (inactive)
ACHN
  GI50: > 100 µM (inactive)
786-0
  GI50: > 100 µM (inactive)
MCF7
  GI50: > 100 µM (inactive)
HCT-116
  GI50: > 100 µM (inactive)
OVCAR-4
  GI50: > 100 µM (inactive)
SK-MEL-5
  GI50: > 100 µM (inactive)
UO-31
  GI50: > 100 µM (inactive)
M14
  GI50: > 100 µM (inactive)
BT-549
  GI50: > 100 µM (inactive)
UACC-62
  GI50: > 100 µM (inactive)
UACC-257
  GI50: > 100 µM (inactive)
RPMI-8226
  GI50: > 100 µM (inactive)
DU-145
  GI50: > 100 µM (inactive)
COLO 205
  GI50: > 100 µM (inactive)
OVCAR-5
  GI50: > 100 µM (inactive)
Hs-578T
  GI50: > 100 µM (inactive)
SW-620
  GI50: > 100 µM (inactive)
HL-60
  GI50: 25.5 µM (inactive)
RXF 393
  GI50: > 100 µM (inactive)
NCI-H522
  GI50: > 100 µM (inactive)
HT-29
  GI50: > 100 µM (inactive)
KM12
  GI50: > 100 µM (inactive)
PC-3
  GI50: > 100 µM (inactive)
HCT-15
  GI50: > 100 µM
SNB-75
  GI50: > 100 µM (inactive)
U-251
  GI50: > 100 µM (inactive)
SK-OV-3
  GI50: > 100 µM (inactive)
IGROV-1
  GI50: > 100 µM (inactive)
SN12C
  GI50: > 100 µM (inactive)
SK-MEL-28
  GI50: > 100 µM (inactive)
Malme-3M
  GI50: > 100 µM (inactive)

## O=c1[nH]c2ccc(C(F)(F)F)cc2nc1-c1ccccc1
T47D
  GI50: > 100 µM (inactive)
CCRF-CEM
  GI50: > 100 µM (inactive)
EKVX
  GI50: > 100 µM (inactive)
K562
  GI50: > 100 µM (inactive)
HOP-92
  GI50: > 100 µM (inactive)
CAKI-1
  GI50: > 100 µM (inactive)
LOX IMVI
  GI50: > 100 µM (inactive)
MOLT-4
  GI50: > 100 µM (inactive)
A498
  GI50: > 100 µM (inactive)
MDA-MB-435
  GI50: > 100 µM (inactive)
SF-295
  GI50: > 100 µM (inactive)
SF-539
  GI50: > 100 µM (inactive)
SR
  GI50: 88.3 µM (inactive)
NCI-H460
  GI50: > 100 µM (inactive)
MDA-N
  GI50: > 100 µM (inactive)
OVCAR-8
  GI50: 52.4 µM (inactive)
SF-268
  GI50: > 100 µM (inactive)
A549
  GI50: > 100 µM (inactive)
NCI-H23
  GI50: > 100 µM (inactive)
MDA-MB-231
  GI50: > 100 µM (inactive)
NCI/ADR-RES
  GI50: > 100 µM (inactive)
OVCAR-3
  GI50: > 100 µM (inactive)
TK-10
  GI50: > 100 µM (inactive)
HOP-62
  GI50: > 100 µM (inactive)
ACHN
  GI50: > 100 µM (inactive)
786-0
  GI50: > 100 µM (inactive)
MCF7
  GI50: > 100 µM (inactive)
HCT-116
  GI50: > 100 µM (inactive)
HCC 2998
  GI50: > 100 µM (inactive)
SK-MEL-5
  GI50: > 100 µM (inactive)
M14
  GI50: > 100 µM (inactive)
BT-549
  GI50: > 100 µM (inactive)
UACC-62
  GI50: > 100 µM (inactive)
UACC-257
  GI50: > 100 µM (inactive)
RPMI-8226
  GI50: > 100 µM (inactive)
DU-145
  GI50: > 100 µM (inactive)
COLO 205
  GI50: > 100 µM (inactive)
OVCAR-5
  GI50: > 100 µM (inactive)
SNB-19
  GI50: > 100 µM (inactive)
Hs-578T
  GI50: 59.6 µM (inactive)
SW-620
  GI50: > 100 µM (inactive)
HL-60
  GI50: > 100 µM (inactive)
RXF 393
  GI50: > 100 µM (inactive)
NCI-H522
  GI50: > 100 µM (inactive)
HT-29
  GI50: > 100 µM (inactive)
PC-3
  GI50: > 100 µM (inactive)
HCT-15
  GI50: > 100 µM
SNB-75
  GI50: > 100 µM (inactive)
IGROV-1
  GI50: > 100 µM (inactive)
SN12C
  GI50: > 100 µM (inactive)
SK-MEL-28
  GI50: > 100 µM (inactive)
Malme-3M
  GI50: > 100 µM (inactive)
